Converted amounts (≈) assume the structure as drawn.
Columns and labels:
Cytochrome P450 2D6 = Cytochrome P450 2D6 (Homo sapiens, UniProt P10635); test: Inhibition of human recombinant CYP2D6; assay type: ADME
[1] = target: T1, Growth hormone secretagogue receptor type 1 (Homo sapiens, UniProt Q92847); test: Agonist activity at human ghrelin receptor; assay type: functional
Motilin receptor = Motilin receptor (Homo sapiens, UniProt O43193); test: Agonist activity at human recombinant motilin receptor expressed in CHO cells by FLIPR assay; assay type: functional, cell-based
Motilin receptor, sequence (O43193 whole entry): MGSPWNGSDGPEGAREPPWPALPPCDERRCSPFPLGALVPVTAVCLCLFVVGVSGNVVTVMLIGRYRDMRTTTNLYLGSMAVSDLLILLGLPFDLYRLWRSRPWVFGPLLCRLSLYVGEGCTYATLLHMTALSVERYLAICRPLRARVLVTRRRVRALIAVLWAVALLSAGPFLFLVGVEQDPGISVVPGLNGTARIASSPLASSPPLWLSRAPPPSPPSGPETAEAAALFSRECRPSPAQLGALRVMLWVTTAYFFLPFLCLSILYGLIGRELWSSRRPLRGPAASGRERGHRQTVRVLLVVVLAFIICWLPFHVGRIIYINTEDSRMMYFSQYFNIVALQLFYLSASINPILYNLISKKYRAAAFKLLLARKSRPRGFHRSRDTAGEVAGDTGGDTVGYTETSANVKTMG

Cytochrome P450 1A2 = target: T2, Cytochrome P450 1A2 (Homo sapiens, UniProt P05177); test: Inhibition of human recombinant CYP1A2; assay type: ADME
T2 sequence (P05177 whole entry): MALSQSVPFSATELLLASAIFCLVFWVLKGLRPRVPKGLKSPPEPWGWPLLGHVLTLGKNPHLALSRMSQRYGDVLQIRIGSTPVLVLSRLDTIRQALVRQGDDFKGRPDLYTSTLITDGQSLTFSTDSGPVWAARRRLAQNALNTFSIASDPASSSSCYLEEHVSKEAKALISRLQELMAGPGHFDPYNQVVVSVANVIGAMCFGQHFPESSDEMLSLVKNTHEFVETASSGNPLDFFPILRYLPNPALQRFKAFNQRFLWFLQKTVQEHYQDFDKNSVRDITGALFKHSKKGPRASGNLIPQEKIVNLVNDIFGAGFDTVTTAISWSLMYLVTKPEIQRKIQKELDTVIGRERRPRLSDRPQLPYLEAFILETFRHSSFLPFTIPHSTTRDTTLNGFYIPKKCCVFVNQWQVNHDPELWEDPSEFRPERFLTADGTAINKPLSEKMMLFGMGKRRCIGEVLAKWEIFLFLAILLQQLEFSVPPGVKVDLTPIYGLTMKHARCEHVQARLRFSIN

Cytochrome P450 3A4 [2] = target: T3, Cytochrome P450 3A4 (Homo sapiens, UniProt P08684); test: Inhibition of human recombinant CYP3A4 using diethoxyfluorescein as substrate; assay type: ADME
T3 sequence (P08684 whole entry): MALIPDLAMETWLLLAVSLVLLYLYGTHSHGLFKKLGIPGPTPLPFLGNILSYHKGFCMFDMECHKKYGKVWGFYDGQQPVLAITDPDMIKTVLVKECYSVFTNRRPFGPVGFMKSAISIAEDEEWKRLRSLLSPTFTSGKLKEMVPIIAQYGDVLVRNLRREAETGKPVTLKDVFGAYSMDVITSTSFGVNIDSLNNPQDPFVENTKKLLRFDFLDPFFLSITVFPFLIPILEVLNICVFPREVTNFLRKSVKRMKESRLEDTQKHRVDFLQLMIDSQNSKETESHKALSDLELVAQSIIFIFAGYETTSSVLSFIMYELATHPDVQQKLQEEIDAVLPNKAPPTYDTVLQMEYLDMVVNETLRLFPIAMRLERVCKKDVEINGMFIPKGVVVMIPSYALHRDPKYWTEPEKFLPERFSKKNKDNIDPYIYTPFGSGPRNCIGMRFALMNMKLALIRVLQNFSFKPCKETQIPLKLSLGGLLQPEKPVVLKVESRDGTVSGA

[3] = Cmax in mouse at 10 mg/kg, po; assay type: ADME, organism-based; parameters: dose 10 mg/kg, route oral; conditions: in vivo
D(3) dopamine receptor = D(3) dopamine receptor (Homo sapiens, UniProt P35462); test: Agonist activity at dopamine D3 receptor; assay type: functional
D(3) dopamine receptor, sequence (P35462 whole entry): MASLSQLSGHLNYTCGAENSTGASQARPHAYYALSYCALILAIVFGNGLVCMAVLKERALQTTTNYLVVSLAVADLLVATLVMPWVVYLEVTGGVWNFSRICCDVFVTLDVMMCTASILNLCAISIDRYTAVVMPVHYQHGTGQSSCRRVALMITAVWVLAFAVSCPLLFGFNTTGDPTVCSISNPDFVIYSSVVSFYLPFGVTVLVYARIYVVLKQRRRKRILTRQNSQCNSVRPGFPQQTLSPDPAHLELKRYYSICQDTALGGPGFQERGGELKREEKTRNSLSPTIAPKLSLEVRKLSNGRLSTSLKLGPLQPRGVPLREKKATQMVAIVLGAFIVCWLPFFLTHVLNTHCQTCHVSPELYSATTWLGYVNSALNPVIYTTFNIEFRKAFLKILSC

Cytochrome P450 2C19 = Cytochrome P450 2C19 (Homo sapiens, UniProt P33261); test: Inhibition of human recombinant CYP2C19; assay type: ADME
Cytochrome P450 2C19, sequence (P33261 whole entry): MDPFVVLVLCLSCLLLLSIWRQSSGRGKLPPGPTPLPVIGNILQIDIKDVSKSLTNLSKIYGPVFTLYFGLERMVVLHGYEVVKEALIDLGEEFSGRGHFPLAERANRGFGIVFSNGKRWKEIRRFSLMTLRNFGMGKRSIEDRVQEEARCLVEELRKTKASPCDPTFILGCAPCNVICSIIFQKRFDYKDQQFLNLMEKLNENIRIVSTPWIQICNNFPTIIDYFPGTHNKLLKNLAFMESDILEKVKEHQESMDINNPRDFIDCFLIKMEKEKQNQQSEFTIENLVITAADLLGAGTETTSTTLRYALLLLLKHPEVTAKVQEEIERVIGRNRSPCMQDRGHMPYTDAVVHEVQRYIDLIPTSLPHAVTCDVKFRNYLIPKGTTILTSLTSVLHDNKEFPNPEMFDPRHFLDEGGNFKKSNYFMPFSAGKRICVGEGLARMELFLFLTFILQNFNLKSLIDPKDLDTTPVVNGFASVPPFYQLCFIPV

[4] = target: Voltage-gated inwardly rectifying potassium channel KCNH2 (Homo sapiens, UniProt Q12809); test: Inhibition of human ERG
Liver microsomes [5] = test: Intrinsic clearance in rat liver microsomes after 30 mins; assay type: ADME, Microsome; conditions: 0.5 h
[6] = Aqueous solubility at pH 7.4; assay type: physicochemical
D(2) dopamine receptor = D(2) dopamine receptor (Homo sapiens, UniProt P14416); test: Agonist activity at dopamine D2 receptor; assay type: functional
D(2) dopamine receptor, sequence (P14416 whole entry): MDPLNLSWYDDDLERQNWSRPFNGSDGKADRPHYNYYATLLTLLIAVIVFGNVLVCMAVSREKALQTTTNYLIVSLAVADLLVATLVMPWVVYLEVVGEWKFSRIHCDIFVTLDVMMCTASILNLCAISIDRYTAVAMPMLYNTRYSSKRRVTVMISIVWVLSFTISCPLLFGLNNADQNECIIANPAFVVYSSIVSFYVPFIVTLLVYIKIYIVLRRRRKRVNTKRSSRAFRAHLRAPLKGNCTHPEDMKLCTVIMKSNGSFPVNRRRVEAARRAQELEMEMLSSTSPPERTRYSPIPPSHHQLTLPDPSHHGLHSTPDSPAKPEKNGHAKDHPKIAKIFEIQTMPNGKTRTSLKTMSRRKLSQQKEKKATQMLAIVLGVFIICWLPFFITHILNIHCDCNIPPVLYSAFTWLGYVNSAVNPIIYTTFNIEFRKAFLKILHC

[7] = Half life in mouse at 10 mg/kg, po; assay type: ADME, organism-based; parameters: dose 10 mg/kg, route oral; conditions: in vivo
[8] = Tmax in mouse at 10 mg/kg, po; assay type: ADME, organism-based; parameters: dose 10 mg/kg, route oral; conditions: in vivo
Cytochrome P450 3A4 [9] = target: T3, Cytochrome P450 3A4; test: Inhibition of human recombinant CYP3A4 using 7-{3-(4-phenylpiperazin-1-ylmethyl)benzyl}resorufin as substrate; assay type: ADME
[10] = target: 5-hydroxytryptamine receptor 6 (Homo sapiens, UniProt P50406); test: Agonist activity at 5HT6 receptor; assay type: functional
5-hydroxytryptamine receptor 6, sequence (P50406 whole entry): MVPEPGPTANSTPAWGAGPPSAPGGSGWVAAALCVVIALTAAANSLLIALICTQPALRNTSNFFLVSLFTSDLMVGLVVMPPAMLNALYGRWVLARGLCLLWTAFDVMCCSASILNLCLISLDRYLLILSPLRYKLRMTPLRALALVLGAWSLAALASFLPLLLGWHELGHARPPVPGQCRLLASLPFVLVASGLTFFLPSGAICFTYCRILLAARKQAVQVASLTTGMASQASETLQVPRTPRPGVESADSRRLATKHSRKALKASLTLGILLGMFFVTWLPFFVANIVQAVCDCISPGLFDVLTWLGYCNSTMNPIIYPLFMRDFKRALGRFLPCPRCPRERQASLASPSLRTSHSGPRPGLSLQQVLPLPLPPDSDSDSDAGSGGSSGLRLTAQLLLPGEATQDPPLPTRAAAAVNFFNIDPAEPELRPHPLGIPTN

Liver microsomes [11] = test: Intrinsic clearance in human liver microsomes after 30 mins; assay type: ADME, Microsome; conditions: 0.5 h
Cytochrome P450 2C9 = Cytochrome P450 2C9 (Homo sapiens, UniProt P11712); test: Inhibition of human recombinant CYP2C9; assay type: ADME
Cytochrome P450 2C9, sequence (P11712 whole entry): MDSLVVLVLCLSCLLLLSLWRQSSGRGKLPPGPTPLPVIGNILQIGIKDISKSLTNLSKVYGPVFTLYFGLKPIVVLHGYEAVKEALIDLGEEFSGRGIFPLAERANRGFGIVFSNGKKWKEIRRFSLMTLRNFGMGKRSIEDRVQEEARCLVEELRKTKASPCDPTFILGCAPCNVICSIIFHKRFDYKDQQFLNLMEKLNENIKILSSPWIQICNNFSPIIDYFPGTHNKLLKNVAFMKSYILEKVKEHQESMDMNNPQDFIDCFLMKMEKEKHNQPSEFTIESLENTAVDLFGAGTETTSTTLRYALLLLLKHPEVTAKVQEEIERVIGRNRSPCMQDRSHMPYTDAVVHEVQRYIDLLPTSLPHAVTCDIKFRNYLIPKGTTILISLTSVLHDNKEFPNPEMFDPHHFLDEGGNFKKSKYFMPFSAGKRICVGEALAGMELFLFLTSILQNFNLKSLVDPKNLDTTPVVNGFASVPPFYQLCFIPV

[12] = target: T1, Growth hormone secretagogue receptor type 1; test: Intrinsic activity at human ghrelin receptor relative to ghrelin
Stomach = test: Increase in electric field stimulated contractile response in New Zealand White rabbit gastric antrum at 3 uM after 60 mins; assay type: functional; conditions: Oryctolagus cuniculus, 1 h

Cytochrome P450 2D6, sequence (P10635 whole entry): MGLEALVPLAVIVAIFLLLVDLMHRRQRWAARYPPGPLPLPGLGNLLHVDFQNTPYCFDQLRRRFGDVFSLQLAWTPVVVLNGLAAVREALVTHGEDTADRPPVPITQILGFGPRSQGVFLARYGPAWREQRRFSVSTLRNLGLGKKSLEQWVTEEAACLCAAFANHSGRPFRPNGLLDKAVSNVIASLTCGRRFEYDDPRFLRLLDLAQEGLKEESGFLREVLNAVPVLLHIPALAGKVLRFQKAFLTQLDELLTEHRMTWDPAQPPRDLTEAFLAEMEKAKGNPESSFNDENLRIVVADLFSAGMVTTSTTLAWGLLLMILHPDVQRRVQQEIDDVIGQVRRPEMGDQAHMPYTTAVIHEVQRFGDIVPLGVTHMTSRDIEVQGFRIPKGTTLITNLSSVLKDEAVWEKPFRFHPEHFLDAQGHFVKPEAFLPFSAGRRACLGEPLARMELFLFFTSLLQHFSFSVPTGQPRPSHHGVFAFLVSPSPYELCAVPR
T1 sequence (Q92847 whole entry): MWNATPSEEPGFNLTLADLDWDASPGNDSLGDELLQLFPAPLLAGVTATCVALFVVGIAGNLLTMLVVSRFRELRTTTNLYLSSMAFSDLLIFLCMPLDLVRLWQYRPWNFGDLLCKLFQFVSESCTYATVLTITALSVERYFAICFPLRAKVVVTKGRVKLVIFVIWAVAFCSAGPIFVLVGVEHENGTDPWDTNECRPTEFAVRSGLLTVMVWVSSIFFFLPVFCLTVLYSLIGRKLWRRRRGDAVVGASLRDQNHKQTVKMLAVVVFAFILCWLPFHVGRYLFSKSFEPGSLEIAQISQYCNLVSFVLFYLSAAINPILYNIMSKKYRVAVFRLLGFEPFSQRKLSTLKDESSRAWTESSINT

Compound	IC50 (Cytochrome P450 2D6) [nM]	EC50 [1] [nM]	EC50 (Motilin receptor) [nM]	other results
CC(C)Oc1ccc(S(=O)(=O)Cc2ccc3c(c2)CCNCC3)cn1	1600	> 1000	158	
CCCCc1ccc(S(=O)(=O)Nc2ccc3c(c2)CCN(Cc2cncn2C)CC3)cc1			3160	
O=C(Nc1ccc2c(c1)CCNCC2)c1ccc(N2CCOCC2)nc1			> 12600	
O=S(=O)(Nc1ccc2c(c1)CCN(Cc1cc[nH]n1)CC2)c1ccc(N2CCOCC2)nc1	< 1000	> 1000	6.31	IC50 (Cytochrome P450 1A2): > 8000 nM; IC50 (Cytochrome P450 3A4 [2]): > 8000 nM; Cmax [3]: 273 ng/mL; Ki (D(3) dopamine receptor): 631 nM; IC50 (Cytochrome P450 2C19): > 8000 nM; IC50 [4]: > 15800 nM; CL (Liver microsomes [5]): 3.8 mL/min/g; solubility [6]: 371 µg/mL (≈ 0.792 mM); Ki (D(2) dopamine receptor): > 3160 nM; half-life [7]: 1.5 h; Tmax [8]: 2 h; IC50 (Cytochrome P450 3A4 [9]): > 8000 nM; Ki [10]: 631 nM; CL (Liver microsomes [11]): 6.6 mL/min/g
CC(C)S(=O)(=O)Nc1ccc2c(c1)CCN(Cc1ccn[nH]1)CC2	16000		> 12600	
CCCCc1ccc(S(=O)(=O)Nc2ccc3c(c2)CCN(Cc2ccn[nH]2)CC3)cc1	< 100	79.4	2.51	IC50 (Cytochrome P450 1A2): 29000 nM; IC50 (Cytochrome P450 3A4 [2]): 800 nM; IC50 (Cytochrome P450 2C9): 600 nM; Ki (D(3) dopamine receptor): 3.98 nM; IC50 (Cytochrome P450 2C19): 8800 nM; IC50 [4]: 2510 nM; solubility [6]: 10000 µg/mL (≈ 22.8 mM); Ki (D(2) dopamine receptor): 100 nM; IC50 (Cytochrome P450 3A4 [9]): 1900 nM
O=S(=O)(Nc1ccc(N2CCOCC2)nc1)c1ccc2c(c1)CCNCC2			2510	
Cc1ccc(S(=O)(=O)Nc2ccc3c(c2)CCN(Cc2ccn[nH]2)CC3)cc1Cl		79.4	39.8	Ki (D(3) dopamine receptor): 100 nM; Ki (D(2) dopamine receptor): 398 nM; Ki [10]: 6.31 nM
CC(C)Oc1ccc(S(=O)(=O)Nc2ccc3c(c2)CCN(Cc2cc[nH]n2)CC3)cc1	1300	158	3.98	Ki (D(3) dopamine receptor): 20 nM; Intrinsic activity [12]: 0.6; Ki (D(2) dopamine receptor): 631 nM; Ki [10]: 200 nM
CCCCc1ccc(S(=O)(=O)Nc2ccc3c(c2)CCN(Cc2cccc(NC(C)=O)c2)CC3)cc1		> 10000	501	
O=S(=O)(Nc1ccc2c(c1)CCN(Cc1cc[nH]n1)CC2)c1ccc(Cl)cc1		> 10000	794	
O=S(=O)(Cc1ccc2c(c1)CCNCC2)c1ccc(Nc2ccc(F)cc2)nc1	300	> 1000	20	CL (Liver microsomes [5]): < 0.5 mL/min/g; CL (Liver microsomes [11]): < 1 mL/min/g
O=S(=O)(Cc1ccc2c(c1)CCNCC2)c1ccc2ccccc2c1		> 10000	1260	
O=S(=O)(Cc1ccc2c(c1)CCNCC2)c1ccc(-c2ccc(Cl)cc2)nc1	< 100	> 1000	7.94	CL (Liver microsomes [5]): < 1 mL/min/g; CL (Liver microsomes [11]): < 1 mL/min/g
CC1(C)CCc2cc(S(=O)(=O)Nc3ccc4c(c3)CCN(Cc3cc[nH]n3)CC4)ccc2O1	500	631	5.01	
O=S(=O)(Cc1ccc2c(c1)CCNCC2)c1ccc(N2CCCCC2)nc1	1100	> 1000	63.1	
O=S(=O)(Nc1ccc2c(c1)CCNCC2)c1ccc(N2CCOCC2)nc1			1580	
O=S(=O)(Nc1ccc2c(c1)CCN(Cc1cc[nH]n1)CC2)c1ccc(-c2ccccn2)s1	200	> 10000	7.94	Emax at 3 µM (Stomach): 190%; IC50 (Cytochrome P450 2C9): 400 nM; Ki (D(3) dopamine receptor): 200 nM; Ki (D(2) dopamine receptor): > 794 nM; Ki [10]: 158 nM
CN(C(=O)c1ccc(N2CCOCC2)nc1)c1ccc2c(c1)CCNCC2			> 12600	
CC(C)COc1ccc(S(=O)(=O)Cc2ccc3c(c2)CCNCC3)cn1		> 1000	39.8	
CCCCc1ccc(S(=O)(=O)Nc2ccc3c(c2)CCN(C2CCN(C(C)=O)CC2)CC3)cc1			> 2510	
CCCCc1ccc(S(=O)(=O)Nc2ccc3c(c2)CCN(Cc2cnc(C)[nH]2)CC3)cc1		20	63.1	Intrinsic activity [12]: 0.5
CCCCc1ccc(S(=O)(=O)N(C)c2ccc3c(c2)CCNCC3)cc1			2510	
CCCCc1ccc(S(=O)(=O)Nc2ccc3c(c2)CCN(Cc2cccs2)CC3)cc1		> 1000	2510	
O=S(=O)(Cc1ccc2c(c1)CCNCC2)c1ccc(-c2ccc(F)c(F)c2)cc1	100	> 1000	25.1	CL (Liver microsomes [5]): 1.1 mL/min/g; CL (Liver microsomes [11]): 1 mL/min/g

— ChEMBL document CHEMBL1154336, “The discovery and optimisation of benzazepine sulfonamide and sulfones as potent agonists of the motilin receptor” (Bioorg Med Chem Lett, 2009)
